Article PMC9905339 (Biochemistry, 2023)

Experiments:
MmaE = MmaE (Mycobacterium marinum, UniProt B2HKM3); test: LC-HRMS of Py-AP after tetrazine click; type: biochemical; details: α-KG, Fe(II), 50 mM HEPES pH 8.0, room temperature
Rv0099 = Rv0099 (Mycobacterium tuberculosis, UniProt P9WQ55)
MmaA = MmaA (Mycobacterium marinum, UniProt B2HKL9)
Chain of MmaA (B2HKL9 whole entry): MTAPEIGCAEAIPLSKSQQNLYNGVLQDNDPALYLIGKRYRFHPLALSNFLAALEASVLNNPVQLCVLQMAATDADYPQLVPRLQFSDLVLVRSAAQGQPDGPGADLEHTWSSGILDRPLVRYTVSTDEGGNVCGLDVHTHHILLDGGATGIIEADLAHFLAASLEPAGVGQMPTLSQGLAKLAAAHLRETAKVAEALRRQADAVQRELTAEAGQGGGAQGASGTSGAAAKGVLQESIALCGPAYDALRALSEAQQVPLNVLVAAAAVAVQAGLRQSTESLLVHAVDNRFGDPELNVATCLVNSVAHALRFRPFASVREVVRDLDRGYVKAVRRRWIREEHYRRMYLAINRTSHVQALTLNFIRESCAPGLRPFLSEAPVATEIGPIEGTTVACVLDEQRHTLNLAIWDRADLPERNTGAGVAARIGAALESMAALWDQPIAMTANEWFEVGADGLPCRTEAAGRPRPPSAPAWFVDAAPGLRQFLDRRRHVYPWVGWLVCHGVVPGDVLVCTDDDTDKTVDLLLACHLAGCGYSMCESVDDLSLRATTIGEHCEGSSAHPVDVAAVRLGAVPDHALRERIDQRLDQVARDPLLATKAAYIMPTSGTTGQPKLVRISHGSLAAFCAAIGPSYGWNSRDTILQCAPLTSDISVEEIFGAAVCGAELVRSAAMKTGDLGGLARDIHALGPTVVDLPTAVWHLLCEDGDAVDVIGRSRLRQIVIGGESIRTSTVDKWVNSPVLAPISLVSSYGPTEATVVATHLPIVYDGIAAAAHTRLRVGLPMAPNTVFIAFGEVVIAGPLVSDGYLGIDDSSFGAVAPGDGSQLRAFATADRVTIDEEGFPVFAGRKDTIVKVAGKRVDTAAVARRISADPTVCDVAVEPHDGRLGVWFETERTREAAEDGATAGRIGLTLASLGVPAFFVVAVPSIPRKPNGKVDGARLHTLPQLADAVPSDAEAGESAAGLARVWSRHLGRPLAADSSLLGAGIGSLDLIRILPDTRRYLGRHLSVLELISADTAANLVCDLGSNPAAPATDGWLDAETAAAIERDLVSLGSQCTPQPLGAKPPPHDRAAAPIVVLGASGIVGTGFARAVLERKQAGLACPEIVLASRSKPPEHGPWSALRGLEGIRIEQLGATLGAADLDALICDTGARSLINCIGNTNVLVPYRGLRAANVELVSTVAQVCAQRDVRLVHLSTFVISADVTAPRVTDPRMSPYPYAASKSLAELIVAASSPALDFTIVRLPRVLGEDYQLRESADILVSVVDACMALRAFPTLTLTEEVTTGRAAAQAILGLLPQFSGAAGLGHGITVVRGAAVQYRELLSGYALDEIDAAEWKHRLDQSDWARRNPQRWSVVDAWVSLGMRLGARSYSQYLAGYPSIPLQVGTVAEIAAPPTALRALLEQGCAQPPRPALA

Chain of Rv0099 (P9WQ55 whole entry): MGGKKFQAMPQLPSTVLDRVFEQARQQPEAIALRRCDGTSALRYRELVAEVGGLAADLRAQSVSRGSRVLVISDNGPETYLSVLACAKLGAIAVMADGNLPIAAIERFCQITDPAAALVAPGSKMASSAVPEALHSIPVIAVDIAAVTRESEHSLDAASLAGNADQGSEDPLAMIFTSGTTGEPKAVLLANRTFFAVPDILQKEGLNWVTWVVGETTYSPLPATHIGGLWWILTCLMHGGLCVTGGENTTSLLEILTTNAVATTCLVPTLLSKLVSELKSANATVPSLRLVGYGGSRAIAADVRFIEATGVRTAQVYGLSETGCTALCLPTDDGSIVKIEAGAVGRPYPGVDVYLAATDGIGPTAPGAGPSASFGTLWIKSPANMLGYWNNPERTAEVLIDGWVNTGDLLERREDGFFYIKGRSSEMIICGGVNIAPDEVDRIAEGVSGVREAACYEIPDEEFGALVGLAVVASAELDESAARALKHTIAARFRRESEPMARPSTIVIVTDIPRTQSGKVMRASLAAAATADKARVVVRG
Chain of MmaE (B2HKM3 whole entry): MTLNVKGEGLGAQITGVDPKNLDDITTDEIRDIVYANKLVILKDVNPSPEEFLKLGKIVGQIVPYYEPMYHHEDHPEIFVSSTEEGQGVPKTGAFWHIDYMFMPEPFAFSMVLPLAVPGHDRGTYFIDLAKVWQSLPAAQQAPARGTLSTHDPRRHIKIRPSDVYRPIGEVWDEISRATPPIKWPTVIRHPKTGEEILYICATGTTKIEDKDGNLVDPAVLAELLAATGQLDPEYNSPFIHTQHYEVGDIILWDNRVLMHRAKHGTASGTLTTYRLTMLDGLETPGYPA

SMILES	LC-HRMS intact protein and Ppant ejection; loading onto holo-Rv0100 (Rv0099)	further results
CCCCCCCC(CC(=O)O)NCC(=O)O (stereo not shown) [CADA, 3-[(carboxymethyl)amino]decanoic acid]	–	LC-HRMS of Py-AP after tetrazine click; turnover (MmaE): INDA was only detected from the assay with MmaE
CCCCCCCC=CC(=O)O [2-decenoic acid]	Rv0099-catalyzed reaction containing holo-Rv0100, 2-decenoic acid, and ATP	–
[C-]#[N+]C(CCCCCCC)CC(=O)O (stereo not shown) [INDA, 3-isocyanodecanoic acid]	INDA, ATP, Rv0099, and Rv0100 yielded the expected product, INDA-S-Rv0100	–
NCCCC[C@H](N)C(=O)O [lysine]	–	LC-HRMS of INLP6; coupled assay with Rv0097/MmaE and Rv0098-0100 (MmaA): together with 2-decenoic acid, ATP, Gly, α-KG, Lys, and NADPH, generated INLP6
